Data from patent US7868046B2, “(2R)-2-[(4-sulfonyl) aminophenyl] propanamides and pharmaceutical compositions containing them” (Dompe' Pha.r.ma S.p.A., priority 2006, dated 2011).

How the values were obtained:
[1] = test system: human PMNs; experiment: CXCL8 induced human PMN chemotaxis inhibition; format: cell-based; conditions: hPMN chemotaxis, compound at 10^−7 M; for inhibition at 0.1 µM: Homo sapiens
Method: (§1) The compounds of the invention of formula (I) were evaluated in vitro for their ability to inhibit chemotaxis of polymorphonucleate leukocytes (hereinafter referred to as PMNs) and monocytes induced by the fractions of IL-8 and GRO-α. For this purpose, in order to isolate the PMNs from heparinized human blood, taken from healthy adult volunteers, mononucleates were removed by means of sedimentation on dextran (according to the procedure disclosed by W. J. Ming et al., J. Immunol., 138, 1469, 1987) and red blood cells by a hypotonic solution. The cell vitality was calculated by exclusion with Trypan blue, whilst the ratio of the circulating polymorphonucleates was estimated on the cytocentrifugate after staining with Diff Quick.
In the CXCL8 induced chemotaxis assay human recombinant CXCL8 (Pepro Tech) was used as stimulating agents in the chemotaxis experiments: the lyophilized protein was dissolved in a volume of HBSS containing 0.2% bovin serum albumin (BSA) so thus to obtain a stock solution having a concentration of 10^−5 M to be diluted in HBSS to a concentration of 10^−8 M, for the chemotaxis assays.
(§2) In the chemotaxis experiments, the PMNs were incubated with the compounds of the invention of formula (I) for 15′ at 37° C. in an atmosphere containing 5% CO2.
(§3) During the chemotaxis assay [W. Falket et al., J. Immunol. Methods, 33, 239, 1980] PVP-free filters with a porosity of 5 μm and microchambers suitable for replication were used.
(§4) The compounds of the invention in formula (I) were evaluated at a concentration ranging between 10^−6 and 10^−10 M; for this purpose they were added, at the same concentration, both to the lower pores and the upper pores of the microchamber. Evaluation of the ability of the compounds of the invention of formula (I) to inhibit the chemotaxis of human monocytes was carried out according to a disclosed method [Van Damme J. et al., Eur. J. Immunol., 19, 2367, 1989].

[2] = test system: human PMNs; experiment: CXCL1 (GRO-α) induced human PMN chemotaxis inhibition; format: cell-based; conditions: hPMN chemotaxis, compound at 10^−8 M; for inhibition at 0.01 µM: Homo sapiens
Method: as §1
GRO-α induced chemotaxis inhibition was evaluated in an analogous assay.
as §2, §3, §4

melting point [°C]	Structure (SMILES)	inhibition at 0.1 µM [1] [%]	inhibition at 0.01 µM [2] [%]	CXCL8 (% inhibition at 10^−7 M) [1] [%]	CXCL1 (% inhibition at 10^−8 M) [2] [%]
125 to 127	CC(C)S(=O)(=O)Nc1ccc([C@@H](C)C(N)=O)cc1 [Compound 1, (2R)-2-{4-[(Isopropylsulfonyl]amino}phenyl)propanamide]	7 ± 18	67 ± 7		
	C[C@@H](C(N)=O)c1ccc(NS(=O)(=O)c2ccccc2Cl)cc1 [Compound 2, (2R)-2-{4-{[(2-chlorophenyl)sulfonyl]amino}phenyl)propanamide]	19 ± 5	41 ± 7		
	C[C@@H](C(N)=O)c1ccc(NS(=O)(=O)c2c(Cl)cccc2Cl)cc1 [Compound 3, (2R)-2-{4-{[(2,6-dichlorophenyl)sulfonyl]amino}phenyl)propanamide]	14 ± 5	39 ± 10		
	C[C@@H](C(N)=O)c1ccc(NS(C)(=O)=O)cc1 [Compound 4, (2R)-2-{4-[(methylsulfonyl)amino]phenyl}propanamide]	10 ± 7	75 ± 7		
152 to 153	C[C@@H](C(N)=O)c1ccc(NS(=O)(=O)c2ccccc2)cc1 [Compound 5, (2R)-2-{4-[(phenylsulfonyl)amino]phenyl}propanamide]	15 ± 10	44 ± 9		
138 to 140	Cc1ccc(S(=O)(=O)Nc2ccc([C@@H](C)C(N)=O)cc2)cc1 [Compound 6, (2R)-2-{4-{[(4-methylphenyl)sulfonyl]amino}phenyl)propanamide]	12 ± 10	65 ± 4		
118 to 120	COc1ccc(S(=O)(=O)Nc2ccc([C@@H](C)C(N)=O)cc2)cc1 [Compound 7, (2R)-2-{4-{[(4-methoxylphenyl)sulfonyl]amino}phenyl)propanamide]	9 ± 7	71 ± 11		
68 to 70	C[C@@H](C(N)=O)c1ccc(NS(=O)(=O)Cc2ccccc2)cc1 [Compound 8, (2R)-2-(4-[(benzylsulfonyl]amino}phenyl)propanamide]	14 ± 9	58 ± 6		
150 to 153	C[C@@H](C(N)=O)c1ccc(NS(=O)(=O)c2ccc(Cl)cc2)cc1 [Compound 9, (2R)-2-(4-{[(4-chlorophenyl)sulfonyl]amino}phenyl)propanamide]	20 ± 4	53 ± 12		
178 to 180	C[C@@H](C(N)=O)c1ccc(NS(=O)(=O)c2ccc(C(F)(F)F)cc2)cc1 [Compound 10, (2R)-2-(4-{[(4-(trifluoromethyl)phenyl]sulfonyl}amino)phenyl]propanamide]	15 ± 7	69 ± 5		
58 to 60	C[C@@H](C(N)=O)c1ccc(NS(=O)(=O)c2cccs2)cc1 [Compound 11, (2R)-2-{4-[(thien-2ylsulfonyl)amino]phenyl}propanamide]	17 ± 4	50 ± 2		
	C[C@@H](C(N)=O)c1ccc(NS(=O)(=O)C2CCCC2)cc1 [Compound 12, (2R)-2-{4-[(cyclopentylsulfonyl)amino]phenyl}propanamide]	21 ± 10	67 ± 7		
	C[C@@H](C(N)=O)c1ccc(NS(=O)(=O)C(F)(F)F)cc1 [Compound 13, (2R)-2-(4-{[(trifluoromethyl)sulfonyl]amino}phenyl)propanamide]	24 ± 7	75 ± 11		
	CNC(=O)[C@H](C)c1ccc(NS(=O)(=O)C(C)C)cc1 [Compound 14, (2R)-2-{4-[(isopropylsulfonyl]amino}phenyl)-N-methylpropanamide]	8 ± 9	64 ± 8		
	CC(C)S(=O)(=O)Nc1ccc([C@@H](C)C(=O)N[C@@H](C)C(N)=O)cc1 [Compound 15, (2R)—N-[(1S)-2-amino-1-methyl-2-oxoethyl]-2-{4-[(isopropylsulfonyl]amino}phenyl) propanamide]			10 ± 8	58 ± 2
	CC(C)S(=O)(=O)Nc1ccc([C@@H](C)C(=O)Nc2nc(C(F)(F)F)cs2)cc1 [Compound 16, (2R)-2-{4-[(isopropylsulfonyl]amino}phenyl)-N-[4-(trifluoromethyl)-1,3-thiazol-2-yl]propanamide]	11 ± 7	49 ± 10		
	C[C@@H](C(=O)Nc1nc(C(F)(F)F)cs1)c1ccc(NS(=O)(=O)c2ccccc2Cl)cc1 [Compound 17, (2R)-2-{4-{[(2-chlorophenyl)sulfonyl]amino}phenyl)-N-[4-(trifluoromethyl)-1,3-thiazol-2-yl]propanamide]	14 ± 11	40 ± 12		
	C[C@@H](C(=O)NCCOCCO)c1ccc(NS(=O)(=O)c2ccccc2Cl)cc1 [Compound 18, (2R)-2-{4-{[(2-chlorophenyl)sulfonyl]amino}phenyl)-N-[2-(2-hydroxyethoxy)ethyl]propanamide]	6 ± 7	59 ± 5		
	C[C@@H](C(=O)NC1CC1)c1ccc(NS(=O)(=O)c2ccccc2Cl)cc1 [Compound 19, (2R)-2-{4-{[(2-chlorophenyl)sulfonyl]amino}phenyl)-N-cyclopropylpropanamide]	19 ± 4	60 ± 8		
